Data on twelve compounds can be found in US20260092071A1, “COMPOUNDS AND COMPOSITIONS AS SMARCA2/4 DEGRADERS AND USES THEREOF” (REGENTS OF THE UNIVERSITY OF MICHIGAN, priority 2022, published 2026).

The target of one assay is SMARCA2 (Homo sapiens, UniProt P51531). The assay is described as follows: HiBit assay in engineered HT1080 CRISPR knock-in cell, 6 hrs (B series), SMARCA2. The conditions noted are these: 6 hrs incubation; for DC50: read-out: SMARC A2 HT1080 HiBit DC50; for Dmax: HT-1080, HT1080 CRISPR knock-in cells, read-out: SMARC A2 HT1080 HiBit Dmax (%). It is filed as cell-based. A digest of the protocol:
(§1)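 Engineered HT1080 knock-in cells, 2000 cells/well, 6 hrs compound exposure, 37° C/5% CO2, 0.1% DMSO final. Lytic detection: LgBiT 1:100 plus HiBiT substrate 1:50 in lytic buffer, 10 min shake at RT, luminescence read.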
A general note: HiBiT is a short tag that completes a luciferase, so light tracks the accessible tagged protein.

A further assay has as its target SMARCA4 (Homo sapiens, UniProt P51532). The assay is described as follows: HiBit assay in engineered HT1080 CRISPR knock-in cell, 6 hrs (B series), SMARCA4. It is filed as cell-based. The conditions noted are these: 6 hrs incubation; for DC50: HT1080 CRISPR knock-in cells, read-out: SMARC A4 HT1080 HiBit DC50; for Dmax: HT-1080, HT1080 CRISPR knock-in cells, read-out: SMARC A4 HT1080 HiBit Dmax(%). A digest of the protocol:
as §1

Chain of SMARCA4 (P51532 whole entry): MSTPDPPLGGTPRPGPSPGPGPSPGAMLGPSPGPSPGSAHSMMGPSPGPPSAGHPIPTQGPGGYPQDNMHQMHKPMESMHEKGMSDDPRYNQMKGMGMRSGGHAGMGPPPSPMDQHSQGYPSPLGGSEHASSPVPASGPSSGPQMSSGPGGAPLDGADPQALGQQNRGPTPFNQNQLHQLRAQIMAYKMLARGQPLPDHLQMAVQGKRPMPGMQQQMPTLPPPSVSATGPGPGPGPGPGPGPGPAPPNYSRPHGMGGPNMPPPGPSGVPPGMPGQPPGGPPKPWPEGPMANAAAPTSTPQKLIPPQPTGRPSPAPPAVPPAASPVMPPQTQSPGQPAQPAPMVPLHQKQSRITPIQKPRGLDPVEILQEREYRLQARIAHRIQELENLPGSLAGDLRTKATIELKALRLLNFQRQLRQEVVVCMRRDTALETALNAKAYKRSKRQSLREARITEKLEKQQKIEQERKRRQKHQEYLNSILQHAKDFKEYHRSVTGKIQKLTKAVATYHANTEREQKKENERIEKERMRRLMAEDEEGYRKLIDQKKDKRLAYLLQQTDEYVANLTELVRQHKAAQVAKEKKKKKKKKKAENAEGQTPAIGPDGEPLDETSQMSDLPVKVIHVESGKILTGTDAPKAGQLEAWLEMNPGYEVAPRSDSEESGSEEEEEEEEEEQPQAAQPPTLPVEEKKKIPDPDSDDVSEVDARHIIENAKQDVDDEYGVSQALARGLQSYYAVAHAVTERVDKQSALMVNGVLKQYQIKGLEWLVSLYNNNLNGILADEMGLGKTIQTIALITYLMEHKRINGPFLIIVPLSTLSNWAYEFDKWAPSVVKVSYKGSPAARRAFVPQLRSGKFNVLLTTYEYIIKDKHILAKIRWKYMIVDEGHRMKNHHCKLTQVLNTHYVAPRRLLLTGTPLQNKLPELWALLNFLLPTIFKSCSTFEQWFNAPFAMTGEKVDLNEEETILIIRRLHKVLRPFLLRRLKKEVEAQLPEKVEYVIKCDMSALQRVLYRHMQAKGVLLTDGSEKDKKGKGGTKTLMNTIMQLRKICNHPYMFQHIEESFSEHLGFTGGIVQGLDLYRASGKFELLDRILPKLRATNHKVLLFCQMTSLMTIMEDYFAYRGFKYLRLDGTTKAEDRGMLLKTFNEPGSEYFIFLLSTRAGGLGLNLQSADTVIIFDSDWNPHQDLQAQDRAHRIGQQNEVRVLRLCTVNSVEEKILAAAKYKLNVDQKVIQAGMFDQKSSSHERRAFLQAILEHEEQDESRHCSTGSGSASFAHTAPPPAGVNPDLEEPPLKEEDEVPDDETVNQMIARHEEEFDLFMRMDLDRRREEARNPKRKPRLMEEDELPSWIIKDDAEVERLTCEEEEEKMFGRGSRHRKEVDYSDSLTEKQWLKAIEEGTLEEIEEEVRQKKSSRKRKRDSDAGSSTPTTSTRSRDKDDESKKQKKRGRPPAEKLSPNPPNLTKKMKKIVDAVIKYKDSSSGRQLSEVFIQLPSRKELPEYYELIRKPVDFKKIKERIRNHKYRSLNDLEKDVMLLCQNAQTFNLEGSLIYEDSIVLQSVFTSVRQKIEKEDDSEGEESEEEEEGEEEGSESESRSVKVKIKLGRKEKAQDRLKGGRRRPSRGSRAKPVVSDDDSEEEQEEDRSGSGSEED
Chain of SMARCA2 (P51531 whole entry): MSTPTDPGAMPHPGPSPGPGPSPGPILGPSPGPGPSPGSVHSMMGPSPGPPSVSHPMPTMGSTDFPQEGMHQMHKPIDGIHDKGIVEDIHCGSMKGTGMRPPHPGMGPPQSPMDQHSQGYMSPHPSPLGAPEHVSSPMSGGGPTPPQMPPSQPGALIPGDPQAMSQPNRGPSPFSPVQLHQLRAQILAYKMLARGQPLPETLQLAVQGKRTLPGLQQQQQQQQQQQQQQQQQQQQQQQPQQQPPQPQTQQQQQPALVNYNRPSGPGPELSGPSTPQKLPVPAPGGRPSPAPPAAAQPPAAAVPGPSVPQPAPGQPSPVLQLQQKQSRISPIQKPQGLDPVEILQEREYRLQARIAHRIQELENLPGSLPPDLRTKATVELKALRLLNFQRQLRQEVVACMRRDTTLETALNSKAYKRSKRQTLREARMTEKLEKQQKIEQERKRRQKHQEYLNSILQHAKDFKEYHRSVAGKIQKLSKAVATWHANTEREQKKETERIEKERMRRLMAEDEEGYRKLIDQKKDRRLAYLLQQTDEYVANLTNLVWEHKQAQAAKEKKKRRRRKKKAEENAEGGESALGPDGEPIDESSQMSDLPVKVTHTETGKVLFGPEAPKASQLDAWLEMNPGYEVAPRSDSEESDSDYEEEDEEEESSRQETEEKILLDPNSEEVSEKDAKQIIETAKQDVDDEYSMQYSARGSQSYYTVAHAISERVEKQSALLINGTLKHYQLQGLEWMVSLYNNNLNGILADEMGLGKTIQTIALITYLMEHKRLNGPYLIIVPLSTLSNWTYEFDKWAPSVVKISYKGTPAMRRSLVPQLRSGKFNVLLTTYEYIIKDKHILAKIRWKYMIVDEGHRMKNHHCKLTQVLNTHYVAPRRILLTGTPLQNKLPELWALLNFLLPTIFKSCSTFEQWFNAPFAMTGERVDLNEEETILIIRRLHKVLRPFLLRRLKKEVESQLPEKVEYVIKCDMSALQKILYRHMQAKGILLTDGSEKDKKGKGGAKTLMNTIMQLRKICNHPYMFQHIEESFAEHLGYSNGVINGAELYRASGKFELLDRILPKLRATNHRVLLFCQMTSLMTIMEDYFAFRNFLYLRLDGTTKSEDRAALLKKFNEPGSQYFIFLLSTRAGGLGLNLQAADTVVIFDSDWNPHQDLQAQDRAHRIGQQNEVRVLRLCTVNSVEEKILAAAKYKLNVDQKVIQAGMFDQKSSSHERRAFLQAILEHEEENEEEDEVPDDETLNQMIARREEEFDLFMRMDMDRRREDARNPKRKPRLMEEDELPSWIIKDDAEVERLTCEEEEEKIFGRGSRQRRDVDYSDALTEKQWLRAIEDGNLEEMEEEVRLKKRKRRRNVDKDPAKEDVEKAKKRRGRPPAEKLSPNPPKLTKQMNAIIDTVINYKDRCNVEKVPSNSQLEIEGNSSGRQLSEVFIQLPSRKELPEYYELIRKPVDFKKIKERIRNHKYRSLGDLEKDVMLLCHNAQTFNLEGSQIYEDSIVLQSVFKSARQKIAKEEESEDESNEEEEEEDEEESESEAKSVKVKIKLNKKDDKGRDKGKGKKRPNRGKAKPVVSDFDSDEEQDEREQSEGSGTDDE

As to `Cc1cc(C(C(=O)N2C[C@H](O)C[C@H]2C(=O)N[C@@H](CCN2CCC(c3cccc4c3C(C)(C)c3nc(=O)c5c(Cl)cccc5n3-4)CC2)c2ccc(-c3scnc3C)cc2)C(C)C)on1` (stereo partly drawn) [Compound B152, (2S,4R)—N—((S)-3-(4-(4-chloro-7,7-dimethyl-5-oxo-5,7-dihydroindolo[1,2-a]quinazolin-8-yl)piperidin-1-yl)-1-(4-(4-methylthiazol-5-yl)phenyl)propyl)-4-hydroxy-1-(3-methyl-2-(3-methylisoxazol-5-yl)butanoyl)pyrrolidine-2-carboxamide], on SMARCA2 (HT1080 CRISPR knock-in cells), the “SMARC A2 HT1080 HiBit Dmax (%)” value is listed as “A (A (>90% degradation))” and the DC50 is below 0.1 µM. Also, at SMARCA4, the DC50 was below 0.1 µM and the Dmax fell in the range of 70 to 90%.

In the case of `Cc1ncsc1-c1ccc([C@H](CN2CCOCC2)NC(=O)[C@@H]2C[C@@H](O)CN2C(=O)[C@@H](c2cc(O[C@H]3CC[C@H](CN4CCC(c5ccc6c(c5)-n5c(nc(=O)c7c(Cl)cccc75)C65CCCCC5)CC4)CC3)no2)C(C)C)cc1` [Compound B158, (2S,4R)-1-((R)-2-(3-(((11,4R)-4-((4-(4′-chloro-5′-oxo-5′H-spiro[cyclohexane-1,7′-indolo[1,2-a]quinazolin]-10′-yl)piperidin-1-yl)methyl)cyclohexyl)oxy)isoxazol-5-yl)-3-methylbutanoyl)-4-hydroxy-N-((R)-1-(4-(4-methylthiazol-5-yl)phenyl)-2-morpholinoethyl)pyrrolidine-2-carboxamide], the DC50 on SMARCA2 (HT1080 CRISPR knock-in cells) and on SMARCA4 was below 0.1 µM each time. In addition, the Dmax at SMARCA2 and at SMARCA4 was above 90% each time.

As to `Cc1ncsc1-c1ccc([C@H](C)NC(=O)[C@@H]2C[C@@H](O)CN2C(=O)[C@@H](n2cc([C@H](C)N3CCC(c4ccc5c(c4)-n4c(nc(=O)c6c(Cl)cccc64)C5(C)C)CC3)nn2)C(C)(C)C)cc1` [Compound B68, (2S,4R)-1-((S)-2-(4-((S)-1-(4-(4-chloro-7,7-dimethyl-5-oxo-5,7-dihydroindolo[1,2-a]quinazolin-10-yl)piperidin-1-yl)ethyl)-1H-1,2,3-triazol-1-yl)-3,3-dimethylbutanoyl)-4-hydroxy-N-((S)-1-(4-(4-methylthiazol-5-yl)phenyl)ethyl)pyrrolidine-2-carboxamide], the DC50 at SMARCA2 (HT1080 CRISPR knock-in cells) was below 0.1 µM; at SMARCA4, 0.501 to 1 µM. Further, the Dmax was above 90% on SMARCA2 and below 50% at SMARCA4.

With `Cc1ncsc1-c1ccc([C@H](C)NC(=O)[C@@H]2C[C@@H](O)CN2C(=O)[C@@H](c2cc(OCCCn3cc(-c4ccc5c(c4)C(C)(C)c4nc(=O)c6c(Cl)cccc6n4-5)cn3)no2)C(C)C)cc1` [Compound B71, (2S,4R)-1-((R)-2-(3-(3-(4-(4-chloro-7,7-dimethyl-5-oxo-5,7-dihydroindolo[1,2-a]quinazolin-9-yl)-1H-pyrazol-1-yl)propoxy)isoxazol-5-yl)-3-methylbutanoyl)-4-hydroxy-N-((S)-1-(4-(4-methylthiazol-5-yl)phenyl)ethyl)pyrrolidine-2-carboxamide], the figures for the DC50 at SMARCA2 (HT1080 CRISPR knock-in cells) and at SMARCA4 were 0.1 to 0.5 µM and above 1 µM, respectively. The results for the Dmax at SMARCA2 and at SMARCA4 were 50 to 69% and below 50%, respectively.

Take `Cc1ncsc1-c1ccc([C@H](C)NC(=O)[C@@H]2C[C@@H](O)CN2C(=O)[C@@H](NC(=O)CCN2CCC(c3ccc4c(c3)-n3c(nc(=O)c5c(Cl)cccc53)C4(C)C)CC2)C(C)(C)C)cc1` [Compound B43, (2S,4R)-1-((S)-2-(3-(4-(4-chloro-7,7-dimethyl-5-oxo-5,7-dihydroindolo[1,2-a]quinazolin-10-yl)piperidin-1-yl)propanamido)-3,3-dimethylbutanoyl)-4-hydroxy-N—((S)-1-(4-(4-methylthiazol-5-yl)phenyl)ethyl)pyrrolidine-2-carboxamide]: the DC50 is 0.1 to 0.5 µM at SMARCA2 (HT1080 CRISPR knock-in cells) and above 1 µM on SMARCA4. The Dmax on SMARCA2 was 50 to 69%; on SMARCA4 it was below 50%.

Consider `Cc1ncsc1-c1ccc([C@H](C)NC(=O)[C@@H]2C[C@@H](O)CN2C(=O)[C@@H](NC(=O)[C@H]2CC[C@H](CN3CCC(c4ccc5c(c4)C(C)(C)c4nc(=O)c6c(Cl)cccc6n4-5)CC3)CC2)C(C)(C)C)cc1` [Compound B1, (2S,4R)-1-((S)-2-((1r,4S)-4-((4-(4-chloro-7,7-dimethyl-5-oxo-5,7-dihydroindolo[1,2-a]quinazolin-9-yl)piperidin-1-yl)methyl)cyclohexane-1-carboxamido)-3,3-dimethylbutanoyl)-4-hydroxy-N—((S)-1-(4-(4-methylthiazol-5-yl)phenyl)ethyl)pyrrolidine-2-carboxamide], for which the DC50 at SMARCA2 (HT1080 CRISPR knock-in cells) and at SMARCA4 was below 0.1 µM each time. Moreover, the Dmax at SMARCA2 was above 90%; on SMARCA4, 50 to 69%.

Turning to `Cc1ncsc1-c1ccc2c(NC(=O)[C@@H]3C[C@@H](O)CN3C(=O)[C@@H](n3cc([C@H]4CC[C@H](CN5CCC(c6ccc7c(c6)-n6c(nc(=O)c8c(Cl)cccc86)C7(C)C)CC5)CC4)nn3)C(C)(C)C)nccc2c1` [Compound B143, (2S,4R)-1-((S)-2-(4-((1r,4S)-4-((4-(4-chloro-7,7-dimethyl-5-oxo-5,7-dihydroindolo[1,2-a]quinazolin-10-yl)piperidin-1-yl)methyl)cyclohexyl)-1H-1,2,3-triazol-1-yl)-3,3-dimethylbutanoyl)-4-hydroxy-N-(6-(4-methylthiazol-5-yl)isoquinolin-1-yl)pyrrolidine-2-carboxamide], the DC50 was 0.1 to 0.5 µM on SMARCA2 (HT1080 CRISPR knock-in cells) and above 1 µM at SMARCA4. The Dmax was 70 to 90% on SMARCA2 and below 50% at SMARCA4.

Take `Cc1ncsc1-c1ccc([C@H](C)NC(=O)[C@@H]2C[C@@H](O)CN2C(=O)[C@@H](n2cc(-c3cccc(CN4CCC(c5ccc6c(c5)-n5c(nc(=O)c7c(Cl)cccc75)C6(C)C)CC4)c3)nn2)C(C)(C)C)cc1` [Compound B119, (2S,4R)-1-((S)-2-(4-(3-((4-(4-chloro-7,7-dimethyl-5-oxo-5,7-dihydroindolo[1,2-a]quinazolin-10-yl)piperidin-1-yl)methyl)phenyl)-1H-1,2,3-triazol-1-yl)-3,3-dimethylbutanoyl)-4-hydroxy-N-((S)-1-(4-(4-methylthiazol-5-yl)phenyl)ethyl)pyrrolidine-2-carboxamide]: the DC50 on SMARCA2 (HT1080 CRISPR knock-in cells) and at SMARCA4 was below 0.1 µM in each case. The Dmax on SMARCA2 and at SMARCA4 was above 90% each time.

`Cc1ncsc1-c1ccc([C@H](C)NC(=O)[C@@H]2C[C@@H](O)CN2C(=O)[C@H](C(C)C)n2cc(CN3CCC(c4ccc5c(c4)C(C)(C)c4nc(=O)c6c(Cl)cccc6n4-5)CC3)nn2)cc1` [Compound B29, (2S,4R)-1-((S)-2-(4-((4-(4-chloro-7,7-dimethyl-5-oxo-5,7-dihydroindolo[1,2-a]quinazolin-9-yl)piperidin-1-yl)methyl)-1H-1,2,3-triazol-1-yl)-3-methylbutanoyl)-4-hydroxy-N—((S)-1-(4-(4-methylthiazol-5-yl)phenyl)ethyl)pyrrolidine-2-carboxamide]: the DC50 at SMARCA2 (HT1080 CRISPR knock-in cells) and at SMARCA4 was below 0.1 µM each time. The Dmax at SMARCA2 and at SMARCA4 was above 90% throughout.

`Cc1ncsc1-c1ccc([C@H](C)NC(=O)[C@@H]2C[C@@H](O)CN2C(=O)[C@H](C(C)C)n2cc(CC3CCC(N4CCC(c5cccc6c5C(C)(C)c5nc(=O)c7c(Cl)cccc7n5-6)CC4)CC3)nn2)cc1` (stereo partly drawn) [Compound B132, (2S,4R)-1-((S)-2-(4-((4-(4-(4-chloro-7,7-dimethyl-5-oxo-5,7-dihydroindolo[1,2-a]quinazolin-8-yl)piperidin-1-yl)cyclohexyl)methyl)-1H-1,2,3-triazol-1-yl)-3-methylbutanoyl)-4-hydroxy-N—((S)-1-(4-(4-methylthiazol-5-yl)phenyl)ethyl)pyrrolidine-2-carboxamide]: the DC50 at SMARCA2 (HT1080 CRISPR knock-in cells) is below 0.1 µM; on SMARCA4, 0.1 to 0.5 µM. Moreover, the figures for the Dmax at SMARCA2 and at SMARCA4 were above 90% and 70 to 90%, respectively.

Turning to `Cc1ncsc1-c1ccc([C@H](C)NC(=O)[C@@H]2C[C@@H](O)CN2C(=O)[C@@H](NC(=O)C2CC(N3CCC(c4ccc5c(c4)C(C)(C)c4nc(=O)c6c(Cl)cccc6n4-5)CC3)C2)C(C)(C)C)cc1` (stereo partly drawn) [Compound B13, (2S,4R)-1-((2S)-2-(3-(4-(4-chloro-7,7-dimethyl-5-oxo-5,7-dihydroindolo[1,2-a]quinazolin-9-yl)piperidin-1-yl)cyclobutane-1-carboxamido)-3,3-dimethylbutanoyl)-4-hydroxy-N-((S)-1-(4-(4-methylthiazol-5-yl)phenyl)ethyl)pyrrolidine-2-carboxamide], the DC50 on SMARCA2 (HT1080 CRISPR knock-in cells) was below 0.1 µM; on SMARCA4, 0.1 to 0.5 µM. For the same compound, the Dmax is 70 to 90% at SMARCA2 and below 50% at SMARCA4.

`Cc1ncsc1-c1ccc([C@H](C)NC(=O)[C@@H]2C[C@@H](O)CN2C(=O)[C@H](C(C)C)n2cc(C3CCC(N4CCC(c5cccc6c5C(C)(C)c5nc(=O)c7c(Cl)cccc7n5-6)CC4)CC3)nn2)cc1` (stereo partly drawn) [Compound B114, (2S,4R)-1-((S)-2-(4-(4-(4-(4-chloro-7,7-dimethyl-5-oxo-5,7-dihydroindolo[1,2-a]quinazolin-8-yl)piperidin-1-yl)cyclohexyl)-1H-1,2,3-triazol-1-yl)-3-methylbutanoyl)-4-hydroxy-N-((S)-1-(4-(4-methylthiazol-5-yl)phenyl)ethyl)pyrrolidine-2-carboxamide]: the DC50 on SMARCA2 (HT1080 CRISPR knock-in cells) is below 0.1 µM; on SMARCA4 it was 0.1 to 0.5 µM. The Dmax was 70 to 90% on SMARCA2 and below 50% on SMARCA4.
